The experiment concerns AMATA. The experiment in a line: Greenhouse test, pre-emergence (PE) soil application. The experiment is classed as in vivo, Amaranthus rudis. To be noted: group (B) compound alone, 20 g of AS/ha. From the text: The 1:1 mixture of the two soil types was used specifically for cultivating small-seeded dicotyledonous weed since the standard field soil on its own tends to silt up, which may have an adverse effect on the emergence of small-seeded weeds. The resistances mentioned in the tables were confirmed beforehand in standard monitoring experiments. Nevertheless, the origins examined may have additional, hitherto unconfirmed resistances to various mechanisms of action.
The pots were then cultivated in a greenhouse (12-16 h light, temperature day 20-22° C., night 15-18° C.) until the time of application. The pots were treated at various BBCH stages of the seeds/plants on a laboratory track sprayer with spray liquors comprising the compositions according to the invention, mixtures of the prior art or the individual components. Application of the active compounds or active compound combinations and wetting agents formulated as WG, WP, EC or otherwise was carried out at the appropriate growth stages of the plants. The amount of water used for spray application was 100-600 l/ha. After the treatment, the plants were returned to the greenhouses and fertilized and watered as required. The pots were cultivated in a greenhouse (12-16 h light, temperature day 20-22° C., night 15-18° C.).
3 weeks after the application, the foliar effect was evaluated on a scale of 0-100%:
0%=no noticeable effect compared to untreated plants
100%=full effect compared to untreated plants
The following abbreviations were used: • BBCH the BBCH code provides information about the morphological development stage of a plant. Officially, the abbreviation denotes the Biologische Bundesanstalt, Bundessortenamt and CHemische Industrie [Federal Biological Institute for Agriculture and Forestry, Federal Office for Crop Plant Varieties, Chemical Industry]. The range of BBCH 00-10 denotes the germination stages of the seeds until surface penetration. […]

As for `COc1cc(OC)nc(NC(=O)NS(=O)(=O)c2ncccc2C(F)(F)F)n1` [(B1), flazasulfuron], the “effect on AMATA resistant - group B (TSR), C1 (TSR)” value amounted to 60. For `COc1cc(OC)nc(NC(=O)NS(=O)(=O)c2cc(NC=O)ccc2C(=O)N(C)C)n1` [(B2), foramsulfuron] the value was 40. Take `CCS(=O)(=O)c1cccnc1S(=O)(=O)NC(=O)Nc1nc(OC)cc(OC)n1` [(B3), rimsulfuron]: the “effect on AMATA resistant - group B (TSR), C1 (TSR)” value is 60.

Values taken from patent publication US9439430B2, “Method of controlling resistant harmful plants” (priority 2012, dated 2016).
